Results from patent US7465814B2, “Sulfonate compound and fluorescent probe using the same” (priority 2003, dated 2008).

Experiments:
[1] = Responses to the compounds listed in Table 1; type: biochemical; details: same conditions as Example 1
Protocol: (§1) Moreover, in other conditions than those of the above-described tests, reactivity of all of the compounds 1a to 1d with H2O2, other various kinds of nucleophilic agents, reducing agents and the like also was tested, respectively. More specifically, fluorescent responses of 1a to 1d with respect to a XO-HPX system, a XO-HPX-SOD system, H2O2, ascorbic acid, 1,4-hydroquinone, propylamine, diethylamine, glucose, esterase, a cytochrome P450 reductase+NADPH system, and a diaphorase+NADH system were measured, respectively. Operational processes thereof will be described below. Firstly, 1a to 1d and the above-described reagents were dissolved in HEPES of 10 mM having a pH of 7.4 so as to prepare solutions, respectively. Next, a 96 wellmicroplate was provided, where any of the solutions of 1a to 1d (25 μM, 170 μL) was poured into each of the wells, and furthermore, 30 μL of a blank solution or 30 μL of the solution of the reagent to be reacted therewith was added thereto. Final concentrations of the solutions in the wells were adjusted so that concentrations of the solutions of 1a to 1d respectively could be 21.3 μM, that of XO could be 13.1 mU/mL, those of HPX, H2O2, ascorbic acid, 1,4-hydroquinone, propylamine, diethylamine, glucose, NADPH and NADH respectively could be 50 μM, that of cytochrome P450 reductase could be 68 mU/mL, that of diaphorase could be 65 mU/mL, and that of esterase could be 0.5 U/mL, respectively. Then, after they reacted in the wells at 37° C. for 10 minutes, fluorescent responses were measured respectively. Fluorescence intensity measurement was conducted by using an ETC-272 Peltier thermostatted single cell holder (trade name) manufactured by JASCO Corporation or a SpectraMax GeminiEM fluorescence plate reader (trade name) manufactured by Molecular Devices Corporation provided with a FP-750 spectrofluorometer (trade name) manufactured by JASCO Corporation, and by setting excitation wavelengths and emission wavelengths so that those of 1a, 1b and 1c respectively could be 485 nm and 515 nm, and those of 1d respectively could be 511 nm and 540 nm.
(§2) The reactivity of each of the compounds 1d, 5a, 6a, 7 and 8a with respect to superoxide and glutathione (GSH) that is a kind of thiol was tested under the same conditions as those of [1-3. Superoxide-selectivity (2)] in Example 1. […] A vertical axis thereof denotes a fluorescence intensity, which is represented in % of control.

[2] = Fluorescence response to glutathione, quantitativity (FIG. 5); type: biochemical; details: for detection limit of GSH: probe 200 μL, HEPES pH 7.4, 37° C., 10 minutes; for inclination of calibration curve, GSH: up to 1000 pmol
Protocol: (§3) Quantitativity and the like of each of the compounds 6a and 8a with respect to a mercapto compound were evaluated, by using glutathione (GSH) and cysteine that are kinds of thiol. More specifically, an EtOH solution of the compound 6a (10 mM) was prepared, and it further was diluted by 500-fold with a HEPES buffer solution having a pH of 7.4, thereby preparing a probe solution containing the compound 6a. Next, 200 μL of this probe solution and 10 μL of each of solutions of glutathione or cysteine (dissolved in a HEPES buffer solution having a pH of 7.4) with various concentrations were added into each well of a 96-wellmicroplate, and were allowed to stand still at 37° C. for 10 minutes so as to undergo a reaction. Moreover, a probe solution containing 8a was prepared in the same manner as the preparation of the solution of the compound 6a except using 8a instead of 6a, and this probe solution also was allowed to react with a thiol solution in the same manner as the reaction of the probe solution containing 6a. Then, a fluorescence response of each well was measured after the reaction. The measurement of 6a was conducted at λex=383 nm and λem=500 nm, and the measurement of 8a was conducted at λex=483 nm and λem=515 nm. Herein, λex denotes an excitation wavelength, and λem denotes an emission wavelength.
(§4) FIG. 5A is a graph showing the measurement result of 6a, and FIG. 5B is a graph showing the measurement result of 8a.

[3] = Reactivity with superoxide and glutathione (FIG. 4); type: biochemical; details: same conditions as 1-3 Superoxide-selectivity (2)
Protocol: as §1, §2

[4] = Capability as superoxide-detecting fluorescent probe (reactivity with superoxide); type: biochemical; details: tested similarly to the compound 1d
Protocol: Then, by mainly using the compound 1d as a testing compound, the capability thereof as a superoxide-selective fluorescent probe was evaluated, and moreover, a test in a cell system also was conducted. These tests will be described below.
Thus, it is thought that each compound synthesized from a combination of: a phenolic colorant; and a 2,4-dinitrobenzenesulfonyl group, a 4-trifluoromethyl-2-nitrobenzenesulfonyl group or a 4-nitrobenzenesulfonyl group can be used as a superoxide-detecting fluorescent probe similarly. An example of the usage thereof will be shown in Scheme 8 below. Furthermore, it can be expected that a compound for a fluorescent probe having characteristics that are suitable for its application purpose can be designed and developed freely, by designing the compound of the present invention freely within the limitation defined by the general formula (I) and using the fluorescence mechanism developed by the inventors of the present invention, without being limited to the above-described combinations. Examples of the application purpose of the compound of the present invention are varied, including an application to a faintly coloring technique using superoxide.

[5] = Fluorescence response to thiophosphonate group (FIG. 8); type: biochemical
Excerpt: Moreover, a capability of the sulfonate compound of the present invention as a fluorescent probe for mercapto compounds other than thiol (a compound in which a —SH group is bonded to a carbon atom) was examined. […]

[6] = Reaction with other nucleophilic agents instead of thiol; type: biochemical; details: same conditions as the thiol test
Protocol: Quantitativity and the like of each of the compounds 6a and 8a with respect to a mercapto compound were evaluated, by using glutathione (GSH) and cysteine that are kinds of thiol. […] Moreover, a probe solution containing 8a was prepared in the same manner as the preparation of the solution of the compound 6a except using 8a instead of 6a, and this probe solution also was allowed to react with a thiol solution in the same manner as the reaction of the probe solution containing 6a. Then, a fluorescence response of each well was measured after the reaction. The measurement of 6a was conducted at λex=383 nm and λem=500 nm, and the measurement of 8a was conducted at λex=483 nm and λem=515 nm. Herein, λex denotes an excitation wavelength, and λem denotes an emission wavelength.

[7] = Fluorescence response to cysteine, quantitativity (FIG. 5); type: biochemical; details: for detection limit of cysteine: probe 200 μL, HEPES pH 7.4, 37° C., 10 minutes; for inclination of calibration curve, cysteine: up to 1000 pmol
Protocol: as §3, §4

[8] = test system: thiophosphorylated protein; experiment: Fluorescence response to thiophosphorylated protein; type: biochemical
[9] = test system: acetyl cholinesterase (AChE); details: range from 0.1 μU to 0.5 μU, 37° C., 10 minutes, acetyl thiocholine substrate
Protocol: Firstly, an EtOH solution of the compound 8a (10 mM) was prepared, and it further was diluted by 500-fold with a HEPES buffer solution having a pH of 7.4, thereby preparing a probe solution containing the compound 8a (20 μM). Whereas, a solution (1 mM) was prepared by dissolving commercially available acetyl thiocholine in a HEPES buffer solution having a pH of 7.4. Moreover, acetyl cholinesterase (AChE) solutions (solutions obtained by dissolving acetyl cholinesterase in a HEPES buffer solution having a pH of 7.4) with various concentrations (activity levels) were prepared.
Next, 200 μL of the probe solution, 10 μL of the acetyl thiocholine solution and 10 μL of each of the acetyl cholinesterase (AChE) solutions with various concentrations (activity levels) were added into each well of a 96-wellmicroplate, and underwent an enzyme reaction at 37° C. for 10 minutes. Immediately after the reaction, a fluorescence response of each well was measured at λex (excitation wavelength) of 483 nm and λem (emission wavelength) of 515 nm.

## O=c1cc(C(F)(F)F)c2ccc(OS(=O)(=O)c3ccc([N+](=O)[O-])cc3[N+](=O)[O-])cc2o1 [Compound 6a]
[1]
  response with respect to each of the compounds listed in Table 1: almost no response
[2]
  detection limit of GSH: 7 pmol
  inclination of calibration curve, GSH: 0.37 au/pmol
[3]
  selectivity (specificity), superoxide versus glutathione, FIG. 4: excellent mercapto compound-selectivity
[4]
  deprotection by superoxide into the corresponding fluorochrome: deprotected by superoxide
[5]; γ-S-ATP and adenosine monothiophosphate (S-AMP)
  response to thiol group in thiophosphonate group: responded to a thiol group in a so-called thiophosphonate group
[6]
  fluorescence with other nucleophilic agent instead of thiol: no fluorescence at all
[7]
  detection limit of cysteine: 7 pmol
  inclination of calibration curve, cysteine: 0.66 au/pmol

## O=C(O)c1ccccc1-c1c2ccc(=O)cc-2oc2cc(OS(=O)(=O)c3ccc([N+](=O)[O-])cc3[N+](=O)[O-])ccc12 [Compound 8a]
[1]
  response with respect to each of the compounds listed in Table 1: almost no response
[8]
  fluorescence responses to thiophosphorylated protein with different introduction degrees of the thiophosphonate group: fluorescence responses corresponding to the respective introduction degrees were obtained
[9]
  inclination, AChE activity versus fluorescence response: 28.8 au/μU
[2]
  detection limit of GSH: 2 pmol
  inclination of calibration curve, GSH: 4.25 au/pmol
[3]
  selectivity (specificity), superoxide versus glutathione, FIG. 4: excellent mercapto compound-selectivity
[5]; probe 20 μM 200 μL, imidazole buffer pH 7.4, 37° C., 180 minutes
  detection limit of γ-S-ATP: 5 pmol
[6]
  fluorescence with other nucleophilic agent instead of thiol: no fluorescence at all
[7]
  detection limit of cysteine: 1 pmol
  inclination of calibration curve, cysteine: 4.82 au/pmol
